In patent US6936600B2, “Sorbitol dehrydrogenase inhibitors” (Pfizer Inc, priority 1999, dated 2005) one finds melting point data, which are given here for 20 compounds.

The term melting point denotes the temperature, or range, at which the solid turns liquid. For `C[C@@H]1CN(c2ccnc(C(C)(C)O)n2)C[C@H](C)N1c1ccnc([C@@H](C)O)n1` [Example 34, 2-(4-{4-[2-(1R-Hydroxy-ethyl)-pyrimidin-4-yl]-3R,5S-dimethyl-piperazin-1-yl}-pyrimidin-2-yl)-propan-2-ol], the melting point lay within 138 to 140 °C.

As for `C[C@@H](O)c1nccc(N2CCc3nc(-c4ccncc4)ncc3C2)n1` [Example 258], the melting point is 144 to 148 °C.

As for `C[C@@H](O)c1nccc(N2CCc3ncncc3C2)n1` [Example 253], the melting point was 79 to 82 °C.

Take `C[C@@H]1CN(c2ccnc([C@@H](C)O)n2)C[C@H](C)N1C(=O)CSc1ncccn1` [Example 160, 1-{4-[2-(1R-Hydroxy-ethyl)-pyrimidin-4-yl]-2R,6S-dimethyl-piperazin-1-yl}-2-(pyrimidin-2-ylsulfanyl)-ethanone]: the melting point lay within 60 to 70 °C.

`Cc1cc(C)nc(N2C[C@@H](C)N(c3ccnc([C@@H](C)O)n3)[C@@H](C)C2)n1` [Example 27, 1R-{4-[4-(4,6-Dimethyl-pyrimidin-2-yl)-2R,6S-dimethyl-piperazin-1-yl]-pyrimidin-2-yl}-ethanol] had a melting point of 150.5 to 152 °C.

For `C[C@@H](O)c1nccc(N2C[C@@H]3C[C@H]2CN3S(=O)(=O)c2cccs2)n1` [Example 116], the melting point lay within 84 to 86 °C.

`C[C@@H](O)c1nccc(N2CCC(C3CCN(c4ccnc([C@@H](C)O)n4)CC3)CC2)n1` [Example 3, 1R-(4-{1′-[2-(1R-Hydroxy-ethyl)-pyrimidin-4-yl]-[4,4′]bipiperidinyl-1-yl}-pyrimidin-2-yl)-ethanol] registered a melting point of 144 to 153 °C.

As for `Cc1nc2c(c(Oc3ccccc3)n1)CCN(c1ccnc([C@@H](C)O)n1)C2` [Example 97], the melting point was 156 to 158 °C.

The compound `C[C@@H]1CN(c2ccnc([C@@H](C)O)n2)C[C@H](C)N1C(=O)C1CCCCC1` [Example 131, Cyclohexyl-{4-[2-(1R-hydroxy-ethyl)-pyrimidin-4-yl]-2R,6S-dimethyl-piperazin-1-yl}-methanone] registered a melting point of 174 to 175 °C.

Take `C[C@@H]1CN(c2ccnc([C@@H](C)O)n2)[C@@H](C)CN1c1ccnc([C@@H](C)O)n1` [Example 4, 1R-(4-{4-[2-(1R-Hydroxy-ethyl)-pyrimidin-4-yl]-2R,S-dimethyl-piperazin-1-yl}-pyrimidin-2-yl)-ethanol]: the melting point lay in the range of 153 to 155 °C.

`C[C@@H](O)c1nccc(N2CCN(c3nc4ncccc4o3)[C@@H](C)C2)n1` [Example 20, 1R-[4-(3S-Methyl-4-oxazolo[4,5-b]pyridin-2-yl-piperazin-1-yl)-pyrimidin-2-yl]-ethanol] registered a melting point of 158 to 161 °C.

Regarding `C[C@@H](O)c1nccc(N2C[C@H]3CCC[C@@H](C2)N3c2ccnc([C@@H](C)O)n2)n1` (stereo in doubt), the melting point is 151 to 158 °C.

As for `C[C@@H](O)c1nccc(N2CCn3c(nnc3-c3ccc4nccnc4c3)C2)n1` [Example 261], the melting point was 212 to 215 °C.

`C[C@@H](O)c1nccc(N2CCc3c(c(=O)n(-c4cnc5ccccc5n4)n3C)C2)n1` [Example 75, (R)-5-[2-(1-Hydroxy-ethyl)-pyrimidin-4-yl]-1-methyl-2-quinoxalin-2-yl-1,2,4,5,6,7-hexahydro-pyrazolo[4,3-c]pyridin-3-one]: the melting point was 217 to 219 °C (dec.).

In turn, `C[C@@H]1CN(c2ccnc(-c3cccnc3)n2)C[C@H](C)N1c1ccnc([C@@H](C)O)n1` [Example 201, 1R-{4-[2R,6S-Dimethyl-4-(2-pyridin-3-yl-pyrimidin-4-yl)-piperazin-1-yl]-pyrimidin-2-yl}-ethanol] registered a melting point of 61 to 70 °C.

The compound `C[C@@H]1CN(c2ccnc(N3CCN(C)CC3)n2)C[C@H](C)N1c1ccnc([C@@H](C)O)n1` [Example 202, 1R-(4-{2R,6S-Dimethyl-4-[2-(4-methyl-piperazin-1-yl)-pyrimidin-4-yl]-piperazin-1-yl}-pyrimidin-2-yl)-ethanol] registered a melting point of 60 to 70 °C.

`C[C@@H](OC(=O)Cc1nn(Cc2nc3cc(C(F)(F)F)ccc3s2)c(=O)c2ccccc12)c1nccc(N2CCN(c3cnc4ccccc4n3)CC2)n1` [Example 277, (E)-[4-Oxo-3-(5-trifluoromethyl-benzothiazol-2-ylmethyl)-3,4-dihydro-phthalazin-1-yl]-acetic acid 1R-[4-(4-quinoxalin-2-yl-piperazin-1-yl)-pyrimidin-2-yl]-ethyl ester] yielded a melting point of 108 to 112 °C.

For the compound `C[C@@H](O)c1nccc(N2CCN(c3ccnc([C@@H](C)O)n3)[C@@H](C)C2)n1` [Example 38, 1R-(4-{4-[2-(1R-Hydroxy-ethyl)-pyrimidin-4-yl]-2S-methyl-piperazin-1-yl}-pyrimidin-2-yl)-ethanol], the melting point was in the range of 158 to 160 °C.

In the case of `C[C@@H](OC(=O)Cc1nn(Cc2nc3cc(C(F)(F)F)ccc3s2)c(=O)c2ccccc12)c1nccc(N2CCN(C(=O)/C=C/c3cccs3)CC2)n1` [Example 276, (E)-[4-Oxo-3-(5-trifluoromethyl-benzothiazol-2-ylmethyl)-3,4-dihydro-phthalazin-1-yl]-acetic acid 1R-{4-[4-(3-thiophen-2-yl-acryloyl)-piperazin-1-yl]-pyrimidin-2-yl}-ethyl ester], the melting point was 105 to 109 °C.

Compound `C[C@@H](O)c1nccc(N2CCN(S(=O)(=O)/C=C/c3ccccc3)CC2)n1` [Example 111, (E)-1-R{4-[4-(2-phenyl-ethenesulfonyl)-piperazin-1-yl]-pyrimidin-2-yl}-ethanol] displayed a melting point of 68 to 70 °C.
